From the supplement of paper PMC11061612

Legend:
[1] = tested on: BxPC-3 (Pancreatic Carcinoma); experiment: Bliss excess, mean over the matrix (fraction); higher = more synergy
Procedure, shortened: (§1)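 After 24 hours at 37°C and 5% CO2 in 1536-well plates, cells in DMEM/F12 or RPMI plus 10% FBS received two-drug dose matrices for 72 hours. Viability came from CellTiter-Glo 2.0 luminescence and was scaled as inhibition, anchored at 0 by vehicle wells and at 1 by blank wells. Combination Emax is taken as the second-highest inhibition in the matrix, and Bliss excess as the observed combination effect less EA + EB − EA·EB, with EA and EB the single-agent effects.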

[2] = tested on: NCI-H1876 (Small Cell Lung Carcinoma); experiment: as above
Procedure, shortened: as §1

[3] = tested on: NB1 (Neuroblastoma); experiment: as above
Procedure, shortened: as §1

[4] = tested on: C-33-A (Cervical Carcinoma); experiment: as above
Procedure, shortened: as §1

[5] = tested on: KALS-1 (Glioblastoma); experiment: as above
Procedure, shortened: as §1

[6] = tested on: NCI-H1963 (Small Cell Lung Carcinoma); experiment: as above
Procedure, shortened: as §1

[7] = tested on: SCC-4 (Oral Cavity Carcinoma); experiment: as above
Procedure, shortened: as §1

[8] = tested on: GAK (Melanoma); experiment: as above
Procedure, shortened: as §1

[9] = tested on: MDA-MB-415 (Breast Carcinoma); experiment: as above
Procedure, shortened: as §1

[10] = tested on: KP-4 (Pancreatic Carcinoma); experiment: as above
Procedure, shortened: as §1

[11] = tested on: SNU-423 (Hepatocellular Carcinoma); experiment: as above
Procedure, shortened: as §1

[12] = tested on: P30-OHK (B-Lymphoblastic Leukemia); experiment: as above
Procedure, shortened: as §1

[13] = tested on: MM1S (Plasma Cell Myeloma); experiment: as above
Procedure, shortened: as §1

[14] = tested on: LCLC-103H (Non-Small Cell Lung Carcinoma); experiment: as above
Procedure, shortened: as §1

[15] = tested on: NCI-H2373 (Mesothelioma); experiment: as above
Procedure, shortened: as §1

[16] = tested on: NAMALWA (Burkitt's Lymphoma); experiment: as above
Procedure, shortened: as §1

[17] = tested on: ZR-75-30 (Breast Carcinoma); experiment: as above
Procedure, shortened: as §1

[18] = tested on: MONO-MAC-6 (Acute Myeloid Leukemia); experiment: combination Emax (second highest fraction inhibited in the dose matrix, 72 h); higher = more inhibition; extreme values may be limits of the assay
Procedure, shortened: as §1

[19] = tested on: NB1 (Neuroblastoma); experiment: as above
Procedure, shortened: as §1

[20] = tested on: LCLC-103H (Non-Small Cell Lung Carcinoma); experiment: as above
Procedure, shortened: as §1
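Wherever Bliss excess, mean over the matrix is given: after 72 h of two-drug dosing.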

| SMILES | Bliss excess [1] | Bliss excess [2] | Bliss excess [3] | Bliss excess [4] | Bliss excess [5] | Bliss excess [6] | Bliss excess [7] | Bliss excess [8] | Bliss excess [9] | Bliss excess [10] | Bliss excess [11] | Bliss excess [12] | Bliss excess [13] | Bliss excess [14] | Bliss excess [15] | Bliss excess [16] | Bliss excess [17] | combination Emax [18] | combination Emax [19] | combination Emax [20] |
| --- | --- | --- | --- | --- | --- | --- | --- | --- | --- | --- | --- | --- | --- | --- | --- | --- | --- | --- | --- | --- |
| Cc1cc2ncnn2cc1Nc1ncc2c(n1)n(C1CCOCC1)c(=O)n2C [AZD7648] + CN(C)CCCOc1ccc(-c2ccc3ncc4c(c3c2)n(C2CCOCC2)c(=O)n4C)cn1 [AZD0156] (first compound max 10 µM, 7x7, partner max 1 µM) | -0.0034 | 0.0523 | 0.0084 | 0.033 | 0.015 | 0.0494 | -0.0164 | 0.0232 | -0.0254 | 0.0228 | -0.0133 | 0.0194 | 0.0196 | -0.0422 | -0.0077 | -0.0224 | -0.0321 | 0.497 | 0.238 | 0.338 |
| Cc1cc2ncnn2cc1Nc1ncc2c(n1)n(C1CCOCC1)c(=O)n2C [AZD7648] + C[C@@H]1COCCN1C2=NC(=NC(=C2)C3(CC3)[S@](=N)(=O)C)C4=C5C=CNC5=NC=C4 [AZD6738] (first compound max 10 µM, 7x7, partner max 10 µM) | 0.0044 | 0.0004 | 0.0428 | 0.007 | 0.0135 | 0.0138 | -0.025 | 0.0104 | 0.0354 | 0.0727 | 0.0426 | 0.0253 | 0.014 | 0.042 | -0.102 | -0.0089 | -0.0224 | 0.899 | 0.775 | 0.58 |
| Cc1cc2ncnn2cc1Nc1ncc2c(n1)n(C1CCOCC1)c(=O)n2C [AZD7648] + O=C(c1cc(Cc2n[nH]c(=O)c3ccccc23)ccc1F)N1CCN(C(=O)C2CC2)CC1 [Olaparib] (first compound max 10 µM, 7x7, partner max 10 µM) | -0.0712 | 0.0216 | -0.0431 | -0.0107 | -0.0225 | -0.0052 | -0.0422 | -0.0379 | -0.0121 | -0.0225 | -0.0451 | 0.0285 | 0.0141 | -0.0374 | 0.0234 | -0.0119 | -0.0469 | 0.317 | 0.191 | 0.299 |
| NC1(C(=O)N[C@@H](CCO)c2ccc(Cl)cc2)CCN(c2ncnc3[nH]ccc23)CC1 [Capivasertib] + CC(=O)c1c(C)c2cnc(Nc3ccc(N4CCNCC4)cn3)nc2n(C2CCCC2)c1=O [Palbociclib] (first compound max 10 µM, 7x7, partner max 10 µM) | -0.0396 | -0.0263 | -0.0201 | -0.042 | -0.0379 | -0.0584 | -0.007 | 0.0095 | -0.0234 | 0.029 | -0.0019 | 0.0689 | -0.0128 | -0.0146 | -0.0016 | 0.0053 | -0.0173 | 0.728 | 0.697 | 0.448 |
| NC1(C(=O)N[C@@H](CCO)c2ccc(Cl)cc2)CCN(c2ncnc3[nH]ccc23)CC1 [Capivasertib] + CC(C)n1c(=O)n(C)c2cnc3cc(F)c(-c4ccc(OCCCN5CCCCC5)nc4)cc3c21 [AZD1390] (first compound max 10 µM, 7x7, partner max 0.3 µM) | -0.0361 | -0.0805 | -0.0688 | -0.0383 | -0.054 | -0.0615 | -0.045 | -0.0397 | -0.0297 | -0.0546 | -0.0583 | -0.0289 | -0.0204 | -0.0712 | -0.051 | 0.0005 | -0.0471 | 0.594 | 0.626 | 0.267 |
| NC1(C(=O)N[C@@H](CCO)c2ccc(Cl)cc2)CCN(c2ncnc3[nH]ccc23)CC1 [Capivasertib] + CCN(CCO)CCCOc1ccc2c(Nc3cc(CC(=O)Nc4cccc(F)c4)[nH]n3)ncnc2c1 [AZD2811] (first compound max 10 µM, 7x7, partner max 1 µM) | -0.0545 | 0.0781 | -0.0284 | 0.0297 | 0.0318 | -0.023 | -0.0671 | -0.0181 | 0.0001 | -0.0379 | -0.0676 | -0.044 | 0.0257 | -0.0032 | -0.079 | 0.0887 | -0.0115 | 0.817 | 0.79 | 0.413 |
| NC1(C(=O)N[C@@H](CCO)c2ccc(Cl)cc2)CCN(c2ncnc3[nH]ccc23)CC1 [Capivasertib] + COc1nnc2ccc(N3CCC(c4ccc(OCCN5CCN(C)C(=O)[C@H]5C)cc4)CC3)nn12 [AZD5153] (first compound max 10 µM, 7x7, partner max 1 µM) | -0.0336 | 0.0774 | 0.0085 | 0.0321 | -0.0749 | 0.0036 | 0.0043 | -0.0323 | 0.0467 | -0.0109 | 0.0056 | 0.0358 | 0.0564 | -0.0028 | 0.0349 | -0.0058 | -0.034 | 1 | 0.885 | 0.559 |
| NC1(C(=O)N[C@@H](CCO)c2ccc(Cl)cc2)CCN(c2ncnc3[nH]ccc23)CC1 [Capivasertib] + C[C@@H]1COCCN1C2=NC(=NC(=C2)C3(CC3)[S@](=N)(=O)C)C4=C5C=CNC5=NC=C4 [AZD6738] (first compound max 10 µM, 7x7, partner max 10 µM) | -0.0076 | 0.0649 | -0.0341 | -0.065 | -0.074 | -0.0142 | -0.109 | -0.0552 | -0.0516 | -0.0371 | -0.0139 | 0.0468 | 0.0201 | -0.0607 | -0.0301 | -0.0194 | -0.057 | 0.917 | 0.853 | 0.524 |
| NC1(C(=O)N[C@@H](CCO)c2ccc(Cl)cc2)CCN(c2ncnc3[nH]ccc23)CC1 [Capivasertib] + Cn1cnc2c(F)c(Nc3ccc(Br)cc3Cl)c(C(=O)NOCCO)cc21 [Selumetinib] (first compound max 10 µM, 7x7, partner max 10 µM) | -0.0091 | 0.0122 | 0.0054 | 0.0513 | 0.0079 | 0.0023 | 0.042 | -0.0649 | 0.0162 | 0.0084 | 0.0248 | 0.0142 | 0.0712 | -0.0267 | -0.0381 | -0.0231 | -0.0071 | 0.847 | 0.776 | 0.389 |
| Cc1nc(Nc2ncc(C(=O)Nc3c(C)cccc3Cl)s2)cc(N2CCN(CCO)CC2)n1 [Dasatinib] + CC(=O)Nc1cccc(-n2c(=O)n(C3CC3)c(=O)c3c(Nc4ccc(I)cc4F)n(C)c(=O)c(C)c32)c1 [Trametinib] (first compound max 2 µM, 7x7, partner max 1 µM) | 0.0009 | -0.0548 | -0.0502 | 0.0559 | -0.0046 | 0.0078 | -0.0042 | -0.0624 | -0.0197 | 0.0558 | -0.047 | -0.0442 | -0.0089 | 0.0201 | -0.0756 | -0.0039 | -0.0511 | 0.589 | 0.139 | 0.326 |
| COc1cccc2c1C(=O)c1c(O)c3c(c(O)c1C2=O)C[C@@](O)(C(=O)CO)C[C@@H]3O[C@H]1C[C@H](N)[C@H](O)[C@H](C)O1 [Doxorubicin] + Cc1cc2ncnn2cc1Nc1ncc2c(n1)n(C1CCOCC1)c(=O)n2C [AZD7648] (first compound max 1 µM, 7x7, partner max 10 µM) | 0.0216 | 0.144 | 0.0581 | 0.0531 | 0.0571 | 0.1 | 0.0176 | 0.0711 | -0.039 | 0.0583 | 0.0414 | 0.129 | 0.0891 | 0.0261 | 0.0433 | 0.0765 | 0.003 | 0.999 | 0.89 | 0.85 |
| COc1cc2ncnc(Nc3ccc(F)c(Cl)c3)c2cc1OCCCN1CCOCC1 [Gefitinib] + CC(C)n1c(=O)n(C)c2cnc3cc(F)c(-c4ccc(OCCCN5CCCCC5)nc4)cc3c21 [AZD1390] (first compound max 10 µM, 7x7, partner max 0.3 µM) | -0.0692 | -0.074 | -0.0419 | -0.0656 | -0.0471 | -0.0526 | -0.059 | -0.0656 | -0.103 | -0.073 | -0.0902 | -0.0298 | -0.0356 | -0.0119 | -0.0751 | -0.0355 | -0.0587 | 0.42 | 0.0869 | 0.195 |
| CS(=O)(=O)CCNCc1ccc(-c2ccc3ncnc(Nc4ccc(OCc5cccc(F)c5)c(Cl)c4)c3c2)o1 [Lapatinib] + C[C@@H](Oc1cc(-c2cnn(C3CCNCC3)c2)cnc1N)c1c(Cl)ccc(F)c1Cl [Crizotinib] (first compound max 10 µM, 7x7, partner max 10 µM) | -0.0259 | 0.0167 | 0.0158 | -0.0373 | -0.0378 | -0.0272 | 0.0003 | -0.0066 | -0.0417 | -0.0775 | -0.074 | 0.0323 | 0.0395 | -0.0152 | -0.0258 | -0.0528 | -0.0031 | 0.951 | 0.965 | 0.624 |
